The results in this text go back to patent US10656142B2, “Measuring antiplatelet activity” (Melaleuca, Inc., priority 2014, dated 2020).

This test has as its system platelets. Kind of test: Rate of platelet superoxide production during oscillatory shear stress (EPR with CAT1H spin probe) in platelet rich plasma, before and after supplementation. The note with it: 24 healthy volunteers; measured before and 10 hours after supplementation; Provex CV single or double daily dose, aspirin 325 mg; randomized, single-blind, cross-over study. Format: in vivo, Human. Here is the method:
Human venous blood was collected via a low-pressure protocol. A manual blood pressure cuff was applied to the arm with a maximum pressure of 40 mmHg. The first sodium citrate vacutainer (75 USP Units, 4 mL) was discarded, and three more were then filled. Blood was centrifuged at 100 g for 19 minutes with no active braking mechanism. Centrifuged blood was then allowed to sit for 20 to 30 minutes. […] An initial 30 μL sample was taken via glass capillary tube for a baseline reading. The SSC was started, and an initial, 5 point kinetic sample was measured. […]
Amplitude readings were recalculated into μM, and a graph depicting μM/min was prepared. […]
24 healthy volunteers were supplemented with the test composition (Provex CV®) at two different dosages (single or double daily dose) or aspirin (325 mg) in a randomized, single-blind, cross-over study. The rate of superoxide production during shear stress was measured before and 10 hours after supplementation.

On to `CC(=O)Oc1ccccc1C(=O)O` [aspirin], for which the “inhibition of platelet activation (rate of superoxide production during shear stress)” value is “no effect observed”.
